How the values were obtained:
[1] = test system: human urinary bladder compression muscle; test: Relaxation of carbachol-contracted human urinary bladder compression muscle; format: cell-based; settings: for concentration at which the bladder compression muscle was significantly relaxed / concentration at which the muscle was not relaxed significantly: contraction provoked by carbachol (0.5×10^−6 M), each compound alone; for relaxation of bladder compression muscle, combination with propiverine: 10^−6 M propiverine plus compound (a, b, f, g 10^−9 M; c, d 10^−10 M; e, h, i 10^−8 M); for relaxation of bladder compression muscle, combination with propiverine / relaxation of bladder compression muscle, combination with oxybutynin / relaxation of bladder compression muscle, combination with tolterodine: in comparison with each compound alone; for relaxation of bladder compression muscle, combination with oxybutynin: 10^−9 M oxybutynin plus compound (a, b, f, g 10^−9 M; c 10^−10 M; e, h, i 10^−8 M); for relaxation of bladder compression muscle, combination with tolterodine: 10^−9 M tolterodine plus compound (a, b, f, g 10^−9 M; d 10^−10 M; e, h, i 10^−8 M)
[2] = test system: salivation induced with pilocarpine; test: Mouth dryness: suppression of salivation induced with pilocarpine (method of Nagao et al.); format: in vivo
Source text: Examples of a selectable index of toxicity include mouth dryness, which is cited as a side effect of anticholinergic agents. Such mouth dryness can be measured by evaluating suppression of salivation induced with pilocarpine in accordance with the method of Nagao et al. (Folia Pharmacologica Japonica, Vol. 113, p156-166 (1999)). Further, elevation of blood pressure that is cited as a side effect of sibutramine can also be employed as an index of toxicity. Such elevation of blood pressure can be determined through use of a pressure transducer. Gastrointestinal dysfunction (fatty stool, defecation increase, abdominal pain, impending defecation desire) that is cited as a side effect of orlistat can also be employed as an index of toxicity. Such gastrointestinal dysfunction can be examined by analyzing the stool amount and the stool composition. Promotion of appetite that is cited as a side effect of insulin secretagogue can also be employed as an index of toxicity. Such promotion of appetite can be determined by observing body weight fluctuations using an animal, and hypoglycemia can be determined by investigating the concentration of glucose in blood. Loose passage that is cited as a side effect of α-glucosidase inhibitor can also be employed as an index of toxicity. Such loose passage and diarrhea can be investigated by, in the case of administration to animal, external observation of stool, or by analysis of stool amount and stool composition. Body weight gain that is cited as a side effect of insulin resistance improving agent can also be employed as an index of toxicity. Such body weight gain can be investigated by measurement of body weight after administration to animal. Gastrointestinal dysfunction that is cited as a side effect of HMG-CoA reductase inhibitor can also be employed as an index of toxicity. Such gastrointestinal dysfunction can be investigated by analysis of stool amount and stool composition. Gastrointestinal dysfunction that is cited as a side effect of clofibrate type drugs can also be employed as an index of toxicity. […]

[3] = test system: Genetically diabetic mice; test: Antidiabetic effect (III): genetically diabetic mice, rosiglitazone and β3 agonist; format: in vivo; settings: oral, 2 weeks; ROS 1 mg/kg; compound c, d 0.3 mg/kg; e, g 3 mg/kg; h, i 1 mg/kg; alone or combined
Protocol: Genetically diabetic mice were orally administered with rosiglitazone (ROS: 1 mg/kg), a β3 agonist (compound c: 0.3 mg/kg; compound d: 0.3 mg/kg; compound e: 3 mg/kg; compound g: 3 mg/kg; compound h: 1 mg/kg; compound i: 1 mg/kg), or ROS and a β3 agonist (compound c, compound d, compound e, compound g, compound h, and compound i) in combination (each dosage was the same as the aforementioned) for 2 weeks. Blood was collected thereafter, and the amount of glucose contained in blood plasma was measured.

Mice [4] = test: Antidiabetic effect: plasma glucose in mice, insulin and β3 agonist; format: in vivo; settings: 30 min after dosing; INS 0.2 U/kg intraperitoneal; oral compound a 10 mg/kg; c, d 0.3 mg/kg; e, g 3 mg/kg; h, i 1 mg/kg; alone or combined
Protocol: Mice were administered with insulin (INS: 0.2 U/kg, intraperitoneal injection), a β3 agonist (oral administration of compound a: 10 mg/kg; compound c: 0.3 mg/kg; compound d: 0.3 mg/kg; compound e: 3 mg/kg; compound g: 3 mg/kg; compound h: 1 mg/kg; compound i: 1 mg/kg, respectively), or INS and a β3 agonist (compound a, compound c, compound d, compound e, compound g, compound h, and compound i) in combination (each dosage and administration route was the same as the aforementioned), blood was collected after 30 min, and the amount of glucose contained in blood plasma was measured.

[5] = test system: Mice induced with obesity by feeding with a high fat diet; test: Antiobestic effect (I): body weight of high fat diet obese mice, sibutramine and β3 agonist; format: in vivo; settings: oral, 2 weeks; SIB 1 mg/kg; compound c, d 0.3 mg/kg; e, g 3 mg/kg; h, i 1 mg/kg; alone or combined at same doses
Protocol: (§1) Mice induced with obesity by feeding with a high fat diet for 2 months were orally administered with sibutramine (SIB: 1 mg/kg), a β3 agonist (compound c: 0.3 mg/kg; compound d: 0.3 mg/kg; compound e: 3 mg/kg; compound g: 3 mg/kg; compound h: 1 mg/kg; compound i: 1 mg/kg), or SIB and a β3 agonist (compound c, compound d, compound e, compound g, compound h, and compound i) in combination (each dosage was the same as the aforementioned) for 2 weeks and bred, and body weight was measured.

Mice [6] = test: Antilipemic effect (II): plasma triglyceride in mice, bezafibrate and β3 agonist; format: in vivo; settings: oral, 2 weeks; administered solely: BEZ 3 mg/kg; compound c, d 0.3 mg/kg; e, g 3 mg/kg; h, i 1 mg/kg
Protocol: Mice were orally administered with bezafibrate (BEZ: 3 mg/kg), a β3 agonist (compound c: 0.3 mg/kg; compound d: 0.3 mg/kg; compound e: 3 mg/kg; compound g: 3 mg/kg; compound h: 1 mg/kg; compound i: 1 mg/kg), or BEZ and a β3 agonist (compound c, compound d, compound e, compound g, compound h, and compound i) in combination (each dosage was the same as the aforementioned) for 2 weeks. Blood was collected thereafter, and the amount of triglyceride contained in blood plasma was measured.

[7] = test system: Mice induced with obesity by feeding with a high fat diet; test: Antiobestic effect (II): body weight of high fat diet obese mice, orlistat and β3 agonist; format: in vivo; settings: oral, 2 weeks; orlistat 1 mg/kg; compound c, d 0.3 mg/kg; e, g 3 mg/kg; h, i 1 mg/kg; alone or combined at same doses
Protocol: as §1, with “orlistat (1” for “sibutramine (SIB: 1”, “orlistat” for “SIB”

[8] = test system: Genetically diabetic mice; test: Antidiabetic effect (IV): genetically diabetic mice, acarbose and β3 agonist; format: in vivo; settings: oral, 2 weeks; ACA 1 mg/kg; compound c, d 0.3 mg/kg; e, g 3 mg/kg; h, i 1 mg/kg; alone or combined
Protocol: Genetically diabetic mice were orally administered with acarbose (ACA: 1 mg/kg), a β3 agonist (compound c: 0.3 mg/kg; compound d: 0.3 mg/kg; compound e: 3 mg/kg; compound g: 3 mg/kg; compound h: 1 mg/kg; compound i: 1 mg/kg), or ACA and a β3 agonist (compound c, compound d, compound e, compound g, compound h, and compound i) in combination (each dosage was the same as the aforementioned) for 2 weeks. Blood was collected thereafter, and the amount of glucose contained in blood plasma was measured.

[9] = test system: Mice fasted overnight, glucose loaded; test: Antidiabetic effect (II): plasma glucose after glucose loading in fasted mice, glibenclamide and β3 agonist; format: in vivo; settings: 1 hour after glucose load (1 g/kg s.c.), oral GLI 10 mg/kg, compound a 10 mg/kg, d 0.3 mg/kg, e, g 3 mg/kg, i 1 mg/kg, vs glucose loading only
Protocol: Mice fasted overnight were orally administered with glibenclamide (GLI: 10 mg/kg), a β3 agonist (compound a: 10 mg/kg; compound c: 0.3 mg/kg; compound d: 0.3 mg/kg; compound e: 3 mg/kg; compound g: 3 mg/kg; compound h: 1 mg/kg; compound i: 1 mg/kg), or GLI and a β3 agonist (compound a, compound c, compound d, compound e, compound g, compound h, and compound i) in combination (each dosage was the same as the aforementioned), and immediately glucose (1 g/kg, subcutaneous injection) was loaded. Blood was collected after 1 hour, and the amount of glucose contained in blood plasma was measured.
In this combined use, hypoglycemia, which is a side effect of glibenclamide, was not observed.

[10] = in the condition of a reduced dosage

| SMILES | concentration at which the bladder compression muscle was significantly relaxed [1] | concentration at which the muscle was not relaxed significantly [1] | suppression of salivation (mouth dryness side effect) ([2]; in vivo) | blood glucose level (glucose in blood plasma) [3] | relaxation of bladder compression muscle, combination with propiverine [1] | relaxation of bladder compression muscle, combination with oxybutynin [1] | relaxation of bladder compression muscle, combination with tolterodine [1] | blood glucose level (glucose in blood plasma) (Mice [4]) | body weight [5] | plasma triglyceride level (Mice [6]) | body weight [7] | blood glucose level (glucose in blood plasma) [8] | blood glucose level (glucose in blood plasma) [9] | suppression of salivation (mouth dryness side effect) [2, 10] |
| --- | --- | --- | --- | --- | --- | --- | --- | --- | --- | --- | --- | --- | --- | --- |
| Cc1ccc(O)c([C@H](CCN(C(C)C)C(C)C)c2ccccc2)c1 [tolterodine, reference compound] | 10^−8 M | 10^−9 M | observed |  |  |  |  |  |  |  |  |  |  |  |
| CS(=O)(=O)Nc1cc([C@@H](O)CNCCOc2ccc3c(c2)sc2ccccc23)ccc1O [compound c, (R)-N-[5-[2-[2-(dibenzothiophene-3-iloxy)ethylamino]-1-hydroxyethyl]-2-hydroxyphenyl]methanesulfonamide] | 10^−8 M | 10^−10 M |  | no difference in the blood glucose level | relaxed significantly | relaxed significantly | relaxed significantly | no change in blood glucose level | almost no change in body weight | no difference | almost no change in body weight | no difference | almost no difference in the blood glucose level |  |
| CN(C)S(=O)(=O)Nc1cc([C@@H](O)CNCCOc2ccc3c(c2)oc2ccccc23)ccc1O [compound g, (R)-N′-[5-[2-[2-(dibenzofuran-3-iloxy)ethylamino]-1-hydroxyethyl]-2-hydroxyphenyl]-N,N-dimethyl sulfonyl amide] | 10^−7 M | 10^−9 M |  | no difference in the blood glucose level | relaxed significantly | relaxed significantly | relaxed significantly | no change in blood glucose level | almost no change in body weight | no difference | almost no change in body weight | no difference | almost no difference in the blood glucose level |  |
| CCN(CC)CC#CCOC(=O)C(O)(c1ccccc1)C1CCCCC1 (stereo not drawn) [oxybutynin, reference compound] | 10^−8 M | 10^−9 M |  |  |  |  |  |  |  |  |  |  |  | observed |
| CCCOC(C(=O)OC1CCN(C)CC1)(c1ccccc1)c1ccccc1 [propiverine, reference compound] | 10^−5 M | 10^−6 M |  |  |  |  |  |  |  |  |  |  |  | observed |
| CS(=O)(=O)Nc1cc([C@@H](O)CNCCOc2ccc3c(c2)[nH]c2ccccc23)ccc1O [compound d, (R)-N-[5-[2-[2-(9H-carbazole-2-iloxy)ethylamino]-1-hydroxyethyl]-2-hydroxyphenyl]methanesulfonamide] | 10^−8 M | 10^−10 M |  | no difference in the blood glucose level | relaxed significantly | relaxed significantly | relaxed significantly | no change in blood glucose level | almost no change in body weight | no difference | almost no change in body weight | no difference | almost no difference in the blood glucose level |  |
